Measured values taken from patent publication US20250242032A1, “AGGREGATE FORMED BY MEANS OF ASSEMBLING CHALCOGEN HETEROCYCLIC COMPOUND AND INSULIN, AND PREPARATION METHOD THEREFOR, AND INSULIN ORAL PREPARATION” (FUZHOU UNIVERSITY, priority 2021, published 2025).

Tests used:
[1] = tested on: Caco-2 cells; assay: Trans-epithelial electrical resistance (TEER), integrity of epithelial cell layer; format: cell-based, human; conditions: Caco-2 monolayer, monitored for 12 hours
Procedure: Transcellular transport of the aggregate of insulin and chalcogen heterocyclic compound in intestinal model in vitro and integrity of epithelial cell layer
(1) Caco-2 cells were plated in a 24-well Transwell chamber and cultured for 21 days. […] (2) The aggregate was added to the upper Transwell chamber at 20 μg/mL, the concentration of insulin in the liquid in the lower Transwell chamber was detected every 1 hour, and the TEER was monitored continuously for 12 hours.

[2] = tested on: diabetic model mice; assay: Blood glucose of diabetic model mice after oral administration of aggregate suspension; format: in vivo, C57BL/6J mice
Procedure: Change in blood glucose level of diabetic model mice after administered orally with the aggregate of insulin and chalcogen heterocyclic compound (1) Streptozotocin (STZ) was intraperitoneally injected into 6-8 week-old C57BL/6J mice for five consecutive days to induce pancreatic islet B-cell damage. On the 17th day after the first injection, the blood glucose concentration of the mice was measured, and the diabetic mouse model was considered to be successfully established when the blood glucose concentration was higher than 300 mg/dL. (2) After the diabetic model mice were orally administered with a suspension of the above aggregate at an amount of insulin of 80 U/kg, blood was collected from the tail vein of the mice at different time points to monitor the change in blood glucose. In control experiment 1, an equal amount of free insulin was administered orally to the diabetic model mice. In control experiment 2, an equal volume of physiological saline was administered orally to the diabetic model mice. In control experiment 3, insulin was injected subcutaneously to the diabetic model mice at 5 U/kg. Change in blood glucose level in diabetic model mice after administration of a suspension of the aggregate of insulin and chalcogen heterocyclic compound: The diabetic model mice were orally administered with a suspension of the aggregate 2 obtained above at an amount of insulin of 50 U/kg, and then the blood was collected from the tail vein of the mice at different time points to monitor the change in blood glucose concentration. In control experiment 1, an equal volume of physiological saline was administered orally to the diabetic model mice, and in control experiment 2, insulin was injected subcutaneously to the diabetic model mice at 5 U/kg. Change in blood glucose level in diabetic model mice after administration of a suspension of the aggregate of insulin and chalcogen heterocyclic compound: The diabetic model mice were orally administered with a suspension of the above aggregate 3 at an amount of insulin of 50 U/kg. […]

[3] = tested on: diabetic model pigs; assay: Blood glucose of diabetic model pigs after oral administration of enteric-coated capsule loading lyophilized aggregate; format: in vivo, Bama mini-pigs; conditions: oral enteric-coated capsule loading free insulin, 20 U/kg
Procedure: Change in blood glucose level of diabetic model pigs after orally administered with an enteric-coated capsule loading the aggregate of insulin and chalcogen heterocyclic compound (1) Streptozotocin (STZ, with a concentration of 75 mg/mL) was infused intravenously to 4-month-old Bama mini-pigs at 150 mg/kg to induce pancreatic islet B-cell damage. On the 7th day after the first infusion, the blood glucose concentration of the pigs was measured, and the diabetic pig model was considered to be successfully established when the blood glucose concentration was higher than 300 mg/dL. (2) The aggregate was prepared into a lyophilized powder and loaded in an enteric-coated capsule. In control experiment 1, an equal amount of free insulin was loaded in an enteric-coated capsule. (3) The diabetic model pigs were administered with recombinant insulin at an amount of 20 U/kg, after which the blood was taken from the jugular vein of the pigs at different time points to monitor the change in blood glucose concentration. (4) The diabetic model pigs were given normal food at the 3rd and 8th hour after administration, and the food bowl was removed after 15 minutes.

[4] = tested on: diabetic model mice; assay: Blood glucose of diabetic model mice after oral administration of enteric-coated capsule loading lyophilized aggregate; format: in vivo, C57BL/6J mice
Procedure: (1) Streptozotocin (STZ) was intraperitoneally injected into 6-8 week-old C57BL/6J mice for five consecutive days to induce pancreatic islet B-cell damage. On the 17th day after the first injection, the blood glucose concentration of the mice was measured, and the diabetic mouse model was considered to be successfully established when the blood glucose concentration was higher than 300 mg/dL. (2) After the diabetic model mice were orally administered with a suspension of the above aggregate at an amount of insulin of 80 U/kg, blood was collected from the tail vein of the mice at different time points to monitor the change in blood glucose. In control experiment 1, an equal amount of free insulin was administered orally to the diabetic model mice. In control experiment 2, an equal volume of physiological saline was administered orally to the diabetic model mice. In control experiment 3, insulin was injected subcutaneously to the diabetic model mice at 5 U/kg. Change in blood glucose level of diabetic model mice after orally administered with an enteric-coated capsule loading the aggregate of insulin and chalcogen heterocyclic compound (1) The aggregate was prepared into a lyophilized powder and loaded in an enteric-coated capsule. In control experiment 1, an equal amount of free insulin was loaded in an enteric-coated capsule. (2) A diabetic mice model was established according to the method as above. The mice were administered with recombinant insulin at an amount of 20 U/kg, after which the blood was taken from the tail vein of the mice at different time points to monitor the change in blood glucose concentration. In control experiment 2, insulin was injected subcutaneously to the diabetic model mice at 5 U/kg.

[5] = subcutaneous injection 5 U/kg, 15 minutes after injection
[6] = subcutaneous injection 5 U/kg, within 15-180 minutes

| Compound | change in TEER [1] | reduction in blood glucose concentration ([2]; oral, equal amount of free insulin (80 U/kg)) | reduction in blood glucose concentration [2, 5] | reduction of blood glucose concentration [2, 6] | reduction in blood glucose concentration [3] | reduction in blood glucose concentration ([4]; oral enteric-coated capsule loading free insulin, 20 U/kg) | reduction in blood glucose [4, 5] | reduction of blood glucose concentration [4, 6] |
| --- | --- | --- | --- | --- | --- | --- | --- | --- |
| CCCCCCCCCC(=O)[O-].[Na+] [sodium caprate] | drastically reduced |  |  |  |  |  |  |  |
| free insulin: human recombinant insulin, used unencapsulated as oral control or subcutaneous injection control |  | little reduction | significant reduction | 30-50% | little reduction | little reduction | significant reduction | 30-50% |
